Where a name gives a salt, the structure may show the parent alone. Read-outs that look alike come from different tables or passages of the source.
What was measured:
[1] = tested on: MX-1 (Human Mammary Cancer); experiment: in vivo Antitumor Test on MX-1 (Human Mammary Cancer) transplanted in nude mice; conditions: Mus musculus, ip, 528 h, i.p., q7d × 3
Procedure: MX-1 tumor pieces (about 1 mm^3) were subcutaneously transplanted into the side part of each nude mouse (BALB/C.nu/nu, 6 to 7 weeks, female). A compound of the present invention was dissolved in a 5% solution of glucose. When the tumor volume reached 50 mm^3 (on the about 10th day after the transplantation), the solution of the compound was intraperitoneally administered to the animals once a day in accordance with each schedule. On the other hand, a 5% solution of glucose was administered to the control group. The control group had 10 animals, while each test group had 5 animals. On the 22nd day after the transplantation, tumors were taken out and weighed. The tumor multiplication inhibitory ratio of each test group to the control group was determined in accordance with the following formula: [formula] wherein T means the average tumor weight of the test group; and C means the average tumor weight of the control group.

P388 cells = experiment: in vitro Antitumor Test on P388 Cells (Mouse Leukemic Cells), MTT, 3 days; type: cell-based; conditions: 72 h, 3 days incubation
Procedure: P388 cells suspended in RPMI1640 medium (manufactured by Sanko Junyaku) containing 10% of fetal calf serum, (100 U/ml) of penicillin, 100 μg/ml of streptomycin, 5×10^-5 M of mercaptoethanol and 1 mM of sodium pyruvate were pipetted into a 96-well U-bottomed microplate at a ratio of 1.25×10^3 cells (0.1 ml) per well and incubated in a incubator containing 5% of carbon dioxide at 37° C. for a day. A compound of the present invention was dissolved in dimethyl sulfoxide to give a concentration of 10^-2 M and then diluted with the 10% fetal calf serum-containing RPMI1640 culture medium to give a concentration of 10^-4 or 10^-5 M. By taking this concentration as the maximal level, threefold serial dilution was effected with the use of the 10% fetal calf serum-containing RPMI1640 culture medium. Then these dilutions were added to the P388 incubation plate as described above at a ratio of 0.1 ml per well followed by incubation in an incubator containing 5% of carbon dioxide at 37° C. for 3 days. After the completion of the incubation, 0.05 ml/well of a 3.3 mg/ml solution of MTT [3-(4,5-dimethylthiazol-2-yl)-2,5-diphenyltetrazolium bromide] was added thereto and the incubation was continued for additional 2 hours. The microplate was centrifuged and the supernatant was aspirated off from each well. Then the formazan thus formed was dissolved in 0.1 ml of dimethyl sulfoxide and the absorbance thereof at 540 nm measured with a microplate reader was taken as an indication of the viable cell count. In accordance with the following formula, the inhibitory ratio was calculated and the 50% inhibitory concentration (IC50) of the test compound was determined: [formula] wherein T means the absorbance of a well containing the test compound; and C means the absorbance of a well containing no test compound.

[2] = tested on: M5076 (Mouse Reticulum Cell Sarcoma); experiment: in vivo Antitumor Test on M5076 (Mouse Reticulum Cell Sarcoma) transplanted in BDF1 mice; conditions: M5076, ip, 504 h, i.p.; for survival rate on day 21 at 50 mg/kg / inhibition in vivo at 50 mg/kg: 50 mg/kg/day
Procedure: M5076 cells (1×10^6 /animal) were subcutaneously transplanted into the side part of each BDF1 mouse (aged 6 to 7 weeks, female). A compound of the present invention was dissolved in a 5% solution of glucose. From the next day of the transplantation, the solution of the compound was intraperitoneally administered to the animals once a day in accordance with each schedule. On the other hand, a 5% solution of glucose was administered to the control group. The control group had 10 animals, while each test group had 5 animals.
On the 21st day after the transplantation, tumors were taken out and weighed. The tumor multiplication inhibitory ratio of each test group to the control group was determined in accordance with the following formula: [formula] wherein T means the average tumor weight of the test group; and C means the average tumor weight of the control group.

[3] = d1,2,3,4 after transplantation, read-out: Survival rate on the judgement day (21th day)
[4] = d1,2,3,4 after transplantation, tumor weight day 21, read-out: Proliferation inhibitory ratio (%)

Compound | IC50 (P388 cells) [nM] | other results
CN(C)CCn1c(=O)c2cccc3c4c5c(ccc4n(c1=O)c23)C(=O)CC5 [Example 7, 11,12-Dihydro-5-[2-(dimethylamino)ethyl]-4H,10H-ccylopenta[c]pyrimido[5,6,1-jk]carbazole-4,6,10(5H)-trione hydrochloride] | 31 | responders at 15 mg/kg ([1]; 15 mg/kg/day, read-out: Survival rate on the judgement day (22th day)): 100%; inhibition in vivo at 15 mg/kg ([1]; 15 mg/kg/day, tumor weight day 22, read-out: Proliferation inhibitory ratio (%)): 73.2%
CNCCn1c(=O)c2cccc3c4c5c(ccc4n(c1=O)c23)C(=O)CCC5 [Example 10, 12,13-Dihydro-5-[2-(methylamino)ethyl]-4H-benzo[c]pyrimido[5,6,1-jk]carbazole-4,6,10(5H,11H)-trione hydrochloride] | 8.5 | responders at 10 mg/kg ([1]; 10 mg/kg/day, read-out: Survival rate on the judgement day (22th day)): 100%; inhibition in vivo at 10 mg/kg ([1]; 10 mg/kg/day, tumor weight day 22, read-out: Proliferation inhibitory ratio (%)): 59.7%
O=C1CCCc2c1ccc1c2c2cccc3c(=O)n(CCN4CCCC4)c(=O)n1c32 [Example 11, 12,13-Dihydro-5-[2-(1-pyrrolidinyl)ethyl]-4H-benzo [c]pyrimido[5,6,1-jk]carbazole-4,6,10(5H,11H)-trione hydrochloride] | 42 | responders at 30 mg/kg ([1]; 30 mg/kg/day, read-out: Survival rate on the judgement day (22th day)): 100%; inhibition in vivo at 30 mg/kg ([1]; 30 mg/kg/day, tumor weight day 22, read-out: Proliferation inhibitory ratio (%)): 82.5%
O=c1c2cccc3c4c5ccccc5ccc4n(c(=O)n1CCN1CCCC1)c23 [Example 12, 5-[2-(1-Pyrrolidinyl)ethyl]-4H-benzo[c]pyrimido[5,6,1-jk]carbazole-4,6(5H)-dione hydrochloride] | 62 | survival rate on day 21 at 50 mg/kg [2, 3]: 100%; inhibition in vivo at 50 mg/kg [2, 4]: 93.9%
CN(C)CCn1c(=O)c2cccc3c4c(n(c1=O)c32)Cc1ccccc1-4 [Example 20, 2-[2-(Dimethylamino)ethyl]-1H,11H-indeno[1',2':4,5]pyrrolo[3,2,1-ij]quinazoline-1,3(2H)-dione hydrochloride] | 570 | survival rate on day 21 at 12.5 mg/kg ([2]; 12.5 mg/kg/day, d1,2,3,4 after transplantation, read-out: Survival rate on the judgement day (21th day)): 100%; inhibition in vivo at 12.5 mg/kg ([2]; 12.5 mg/kg/day, d1,2,3,4 after transplantation, tumor weight day 21, read-out: Proliferation inhibitory ratio (%)): 70.8%
COc1ccc2ccc3c(c2c1)c1cccc2c(=O)n(CCN(C)C)c(=O)n3c21 [Example 26, 5-[2-(Dimethylamino)ethyl]-12-methoxy-4H-benzo[c]pyrimido [5,6,1-jk]carbazole-4,6(5H)-dione hydrochloride] | 230 | survival rate on day 21 at 50 mg/kg [2, 3]: 100%; inhibition in vivo at 50 mg/kg [2, 4]: 97.4%
CN(C)CCn1c(=O)c2cccc3c4c5cnccc5ccc4n(c1=O)c23 [Example 33, 9-[2-(Dimethylamino)ethyl]-8H-pyrido[4,3-c]pyrimido[5,6,1-jk]carbazole-8,10(9H)-dione dihydrochloride] | 56 | survival rate on day 21 at 50 mg/kg ([2]; d9 after transplantation, read-out: Survival rate on the judgement day (21th day)): 100%; inhibition in vivo at 50 mg/kg ([2]; d9 after transplantation, tumor weight day 21, read-out: Proliferation inhibitory ratio (%)): 74.9%
CN(C)CCn1c(=O)c2cccc3c4c5ccc(C#N)cc5ccc4n(c1=O)c23 [Example 35, 11-Cyano-5-[2-(dimethylamino)ethyl]-4H-benzo[c]pyrimido [5,6,1-jk]carbazole-4,6(5H)-dione hydrochloride] | 63 | survival rate on day 21 at 25 mg/kg ([2]; 25 mg/kg/day, d9 after transplantation, read-out: Survival rate on the judgement day (21th day)): 100%; inhibition in vivo at 25 mg/kg ([2]; 25 mg/kg/day, d9 after transplantation, tumor weight day 21, read-out: Proliferation inhibitory ratio (%)): 78.7%
Cc1ccc(S(=O)(=O)Nc2ccc3c(ccc4c3c3cccc5c(=O)n(CCN(C)C)c(=O)n4c53)c2)cc1 [Example 48, 5-[2-(Dimethylamino)ethyl]-11-(4-methylbenzenesulfonamido)-4H-benzo[c]pyrimido[5,6,1-jk]carbazole-4,6(5H)-dione hydrochloride] | 350 | –
CN(C)CCn1c(=O)c2cccc3c4c5ccc(N)cc5ccc4n(c1=O)c23 [Example 49, 11-Amino-5-[2-(dimethylamino)ethyl]-4H-benzo[c]pyrimido [5,6,1-jk]carbazole-4,6(5H)-dione dihydrochloride] | 30 | –
CC(=O)Nc1ccc2c(ccc3c2c2cccc4c(=O)n(CCN(C)C)c(=O)n3c42)c1 [Example 50, 11-Acetamido-5-[2-(dimethylamino)ethyl]-4H-benzo[c]pyrimido[5,6,1-jk]carbazole-4,6(5H)-dione hydrochloride] | 7.1 | –
CN(C)CCN(C)CCn1c(=O)c2cccc3c4c5ccccc5ccc4n(c1=O)c23 [Example 51, 5-[2-[N-[2-(Dimethylamino)ethyl]-N-methylamino]ethyl]-4H-benzo[c]pyrimido[5,6,1-jk]carbazole-4,6(5H)-dione dihydrochloride] | 290 | –
CN(CCO)CCn1c(=O)c2cccc3c4c5ccccc5ccc4n(c1=O)c23 [Example 52, 5-[2-[N-(2-(Hydroxyethyl)-N-methylamino]ethyl]-4H-benzo[c]pyrimido[5,6,1-jk]carbazole-4,6(5H)-dione hydrochloride] | 150 | survival rate on day 21 at 50 mg/kg [2, 3]: 100%; inhibition in vivo at 50 mg/kg [2, 4]: 70.6%

The next lines start with results.

IC50 (P388 cells) [nM] | Compound | other results
300 | CN(C)CCn1c(=O)c2cc(O)cc3c4c5ccccc5ccc4n(c1=O)c23 [Example 53, 5-[2-[Dimethylamino)ethyl]-2-hydroxy-4H-benzo[c]pyrimido [5,6,1-jk]carbazole-4,6(5H)-dione hydrochloride] | –
80 | COc1cccc2c1ccc1c3cccc4c(=O)n(CCN(C)C)c(=O)n(c43)c21 [Example 54, 2-[2-(Dimethylamino)ethyl]-9-methoxy-1H-benzo[a]pyrimido [5,6,1-jk]carbazole-1,3(2H)-dione hydrochloride] | –
11 | O=c1c2cccc3c4c5cccnc5ccc4n(c(=O)n1CCN1CCCC1)c23 [Example 55, 9-[2-(1-Pyrrolidinyl)ethyl]-8H-pyrido[2,3-c]pyrimido[5,6,1-jk]carbazole-8,10(9H)-dione dihydrochloride] | –
15 | CN(C)CCn1c(=O)c2ccc(F)c3c4c5cccnc5ccc4n(c1=O)c23 [Example 56, 9-[2-(Dimethylamino)ethyl]-13-fluoro-8H-pyrido[2,3-c]pyrimido[5,6,1-jk]carbazole-8,10(9H)-dione dihydrochloride] | –
31 | Cc1ccc2c(ccc3c2c2cccc4c(=O)n(CCN(C)C)c(=O)n3c42)n1 [Example 57, 9-[2-(Dimethylamino)ethyl]-3-methyl-8H-pyrido[2,3-c]pyrimido[5,6,1-jk]carbazole-8,10(9H)-dione dihydrochloride] | –
155 | CN(C)CCn1c(=O)c2nc3ccccc3c3c4ccc5ccccc5c4n(c1=O)c23 [Example 58, 7-[2-(Dimethylamino)ethyl]-6H-benzo[c,i]pyrimido[1,6,5-lm]-β-carboline-6,8(7H)-dione] | –

Source: patent US5952335A, “Fused polycyclic heterocycle derivatives” (Eisai Co., Ltd., priority 1995, dated 1999)
